{
  "source": "patent US20240270741A1",
  "about": "(Cogent Biosciences, Inc., priority 2023, published 2024)",
  "data": [
    {"target": "FGFR2 (Homo sapiens, UniProt P21802)", "sequence (P21802 399-821 limits assumed)": "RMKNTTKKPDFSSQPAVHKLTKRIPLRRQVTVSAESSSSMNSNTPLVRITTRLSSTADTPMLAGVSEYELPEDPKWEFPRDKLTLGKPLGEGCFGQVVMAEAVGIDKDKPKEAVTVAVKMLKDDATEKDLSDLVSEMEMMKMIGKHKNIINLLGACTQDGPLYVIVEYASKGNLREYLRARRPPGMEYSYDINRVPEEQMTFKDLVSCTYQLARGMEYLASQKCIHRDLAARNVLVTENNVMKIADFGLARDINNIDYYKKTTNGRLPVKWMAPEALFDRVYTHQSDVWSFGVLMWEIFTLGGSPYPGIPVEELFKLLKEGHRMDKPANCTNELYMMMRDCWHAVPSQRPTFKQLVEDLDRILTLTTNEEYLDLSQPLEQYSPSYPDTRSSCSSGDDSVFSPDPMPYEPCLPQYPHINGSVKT", "experiment": "FGFR wild type enzyme assay (HTRF KinEASE-TK), FGFR2", "conditions": "Enz FGFR2 (nM)", "units": {"IC50": "nM"}, "values": [
      {"smiles": "Cc1c(-c2cc(SCCOC(C)C)c3c(C#N)cnn3c2)cnn1[C@H]1CCCNC1", "note": "[Example 85, 4-(2-isopropoxyethylsulfanyl)-6-[5-methyl-1-[(3S)-3-piperidyl]pyrazol-4-yl]pyrazolo[1,5-a]pyridine-3-carbonitrile]", "IC50": 7},
      {"smiles": "Cc1c(-c2cc(Sc3ncccc3F)c3c(C#N)cnn3c2)cnn1[C@H]1CCCNC1", "note": "[Example 86, 4-[(3-fluoro-2-pyridyl)sulfanyl]-6-[5-methyl-1-[(3S)-3-piperidyl]pyrazol-4-yl]pyrazolo[1,5-a]pyridine-3-carbonitrile]", "IC50": 2},
      {"smiles": "CCSc1cc(-c2cnn([C@H]3CCCN(C[C@H](O)CO)C3)c2)cn2ncc(C#N)c12", "note": "[Example 87, 6-[1-[(3S)-1-[(2S)-2,3-dihydroxypropyl]-3-piperidyl]pyrazol-4-yl]-4-ethylsulfanyl-pyrazolo[1,5-a]pyridine-3-carbonitrile]", "IC50": 1},
      {"smiles": "CC(C)Sc1cc(-c2cnn([C@H]3CCCN(C[C@H](O)CO)C3)c2)cn2ncc(C#N)c12", "note": "[Example 88, 6-[1-[(3S)-1-[(2S)-2,3-dihydroxypropyl]-3-piperidyl]pyrazol-4-yl]-4-isopropylsulfanyl-pyrazolo[1,5-a]pyridine-3-carbonitrile]", "IC50": 1},
      {"smiles": "CC(C)Sc1cc(-c2cnn([C@H]3CCCN(CCO)C3)c2)cn2ncc(C#N)c12", "note": "[Example 89, 6-[1-[(3S)-1-(2-hydroxyethyl)-3-piperidyl]pyrazol-4-yl]-4-isopropylsulfanyl-pyrazolo[1,5-a]pyridine-3-carbonitrile]", "IC50": 1},
      {"smiles": "N#Cc1cnn2cc(-c3cnn(C4CCN(CCO)CC4)c3)cc(Sc3ccccn3)c12", "note": "[Example 90, 6-[1-[1-(2-hydroxyethyl)-4-piperidyl]pyrazol-4-yl]-4-(2-pyridylsulfanyl)pyrazolo[1,5-a]pyridine-3-carbonitrile]", "IC50": 2},
      {"smiles": "N#Cc1cnn2cc(-c3cnn([C@H]4CCCN(CCO)C4)c3)cc(Sc3ccccn3)c12", "note": "[Example 91, 6-[1-[(3S)-1-(2-hydroxyethyl)-3-piperidyl]pyrazol-4-yl]-4-(2-pyridylsulfanyl)pyrazolo[1,5-a]pyridine-3-carbonitrile]", "IC50": 2},
      {"smiles": "CC(C)N1CCC(n2cc(-c3cc(Sc4ccccn4)c4c(C#N)cnn4c3)cn2)CC1", "note": "[Example 92, 6-[1-(1-isopropyl-4-piperidyl)pyrazol-4-yl]-4-(2-pyridylsulfanyl)pyrazolo[1,5-a]pyridine-3-carbonitrile]", "IC50": 3},
      {"smiles": "CC(=O)N1CCC(n2cc(-c3cc(Sc4ccccn4)c4c(C#N)cnn4c3)cn2)CC1", "note": "[Example 93, 6-[1-(1-acetyl-4-piperidyl)pyrazol-4-yl]-4-(2-pyridylsulfanyl)pyrazolo [1,5-a]pyridine-3-carbonitrile]", "IC50": 3},
      {"smiles": "CN1CCC[C@H]1C(=O)N1CCC(n2cc(-c3cc(Sc4ccccn4)c4c(C#N)cnn4c3)cn2)CC1", "note": "[Example 94, 6-[1-[1-[(2S)-1-methylpyrrolidine-2-carbonyl]-4-piperidyl]pyrazol-4-yl]-4-(2-pyridylsulfanyl) pyrazolo[1,5-a]pyridine-3-carbonitrile]", "IC50": 2},
      {"smiles": "N#Cc1cnn2cc(-c3ccc(N4CCCC4)nc3)cc(Sc3ccccn3)c12", "note": "[Example 95, 4-(2-pyridylsulfanyl)-6-(6-pyrrolidin-1-yl-3-pyridyl)pyrazolo[1,5-a]pyridine-3-carbonitrile]", "IC50": 13},
      {"smiles": "N#Cc1cnn2cc(-c3ccc(OCCN4CCOCC4)nc3)cc(Sc3ccccn3)c12", "note": "[Example 96, 6-[6-(2-morpholinoethoxy)-3-pyridyl]-4-(2-pyridylsulfanyl) pyrazolo[1,5-a]pyridine-3-carbonitrile]", "IC50": 82},
      {"smiles": "N#Cc1cnn2cc(-c3cnn([C@H]4CCN(CCO)C4)c3)cc(Sc3ccccn3)c12", "note": "[Example 97, (S)-6-(1-(1-(2-hydroxyethyl)pyrrolidin-3-yl)-1H-pyrazol-4-yl)-4-(pyridin-2-ylthio)pyrazolo[1,5-a]pyridine-3-carbonitrile]", "IC50": 4},
      {"smiles": "Cc1c(-c2cc(Sc3ccccn3)c3c(C#N)cnn3c2)cnn1C1CCN(C(=O)CO)CC1", "note": "[Example 98, 6-(1-(1-(2-hydroxyacetyl)piperidin-4-yl)-5-methyl-1H-pyrazol-4-yl)-4-(pyridin-2-ylthio)pyrazolo[1,5-a]pyridine-3-carbonitrile]", "IC50": 7},
      {"smiles": "Cc1c(-c2cc(Sc3ccccn3)c3c(C#N)cnn3c2)cnn1C1CCN(C(=O)[C@@H]2CCCN2C)CC1", "note": "[Example 99, 6-(5-methyl-1-(1-(methyl-L-prolyl)piperidin-4-yl)-1H-pyrazol-4-yl)-4-(pyridin-2-ylthio)pyrazolo[1,5-a]pyridine-3-carbonitrile]", "IC50": 5},
      {"smiles": "Cc1c(-c2cc(Sc3ccccn3)c3c(C#N)cnn3c2)cnn1C1CCN(CCO)CC1", "note": "[Example 100, 6-(1-(1-(2-hydroxyethyl)piperidin-4-yl)-5-methyl-1H-pyrazol-4-yl)-4-(pyridin-2-ylthio)pyrazolo[1,5-a]pyridine-3-carbonitrile]", "IC50": 5},
      {"smiles": "Cc1c(-c2cc(Sc3ncccc3F)c3c(C#N)cnn3c2)cnn1C1CCNCC1", "note": "[Example 101, 4-[(3-fluoro-2-pyridyl)sulfanyl]-6-[5-methyl-1-(4-piperidyl)pyrazol-4-yl] pyrazolo[1,5-a]pyridine-3-carbonitrile]", "IC50": 2},
      {"smiles": "Cc1c(-c2cc(Sc3ncccc3F)c3c(C#N)cnn3c2)cnn1[C@@H]1CCCNC1", "note": "[Example 102, 4-[(3-fluoro-2-pyridyl)sulfanyl]-6-[5-methyl-1-[(3R)-3-piperidyl]pyrazol-4-yl]pyrazolo[1,5-a]pyridine-3-carbonitrile]", "IC50": 6},
      {"smiles": "Cc1c(-c2cc(Sc3ncccc3F)c3c(C#N)cnn3c2)cnn1[C@H]1CCNC1", "note": "[Example 103]", "IC50": 4},
      {"smiles": "Cc1c(-c2cc(Sc3ccccc3C#N)c3c(C#N)cnn3c2)cnn1C1CCNCC1", "note": "[Example 104]", "IC50": 1},
      {"smiles": "Cc1c(-c2cc(Sc3ccccc3C#N)c3c(C#N)cnn3c2)cnn1[C@H]1CCCNC1", "note": "[Example 105, 4-(2-cyanophenyl)sulfanyl-6-[5-methyl-1-[(3S)-3-piperidyl]pyrazol-4-yl]pyrazolo[1,5-a]pyridine-3-carbonitrile]", "IC50": 1},
      {"smiles": "Cc1c(-c2cc(Sc3ccccc3C#N)c3c(C#N)cnn3c2)cnn1[C@@H]1CCNC1", "note": "[Example 106, 4-(2-cyanophenyl) sulfanyl-6-[5-methyl-1-[(3R)-pyrrolidin-3-yl]pyrazol-4-yl]pyrazolo[1,5-a]pyridine-3-carbonitrile]", "IC50": 2},
      {"smiles": "Cc1c(-c2cc(Sc3ncccc3F)c3c(C#N)cnn3c2)cnn1C1CCN(C)CC1", "note": "[Example 107, 4-[(3-fluoro-2-pyridyl)sulfanyl]-6-[5-methyl-1-(1-methyl-4-piperidyl)pyrazol-4-yl]pyrazolo[1,5-a]pyridine3-carbonitrile]", "IC50": 1},
      {"smiles": "Cc1c(-c2cc(Sc3ncccc3F)c3c(C#N)cnn3c2)cnn1C1CCN(CCO)CC1", "note": "[Example 108, 4-[(3-fluoro-2-pyridyl)sulfanyl]-6-[5-methyl-1-(1-methyl-4-piperidyl)pyrazol-4-yl]pyrazolo[1,5-a]pyridine3-carbonitrilee]", "IC50": 2},
      {"smiles": "COCCN1CCC(n2ncc(-c3cc(Sc4ncccc4F)c4c(C#N)cnn4c3)c2C)CC1", "note": "[Example 109, 4-[(3-fluoro-2-pyridyl)sulfanyl]-6-[1-[1-(2-methoxyethyl)-4-piperidyl]-5-methyl-pyrazol-4-yl]pyrazolo[1,5-a]pyridine-3-carbonitrile]", "IC50": 2},
      {"smiles": "Cc1c(-c2cc(Sc3ncc(F)cc3F)c3c(C#N)cnn3c2)cnn1C1CCNCC1", "note": "[Example 110, 4-[(3,5-difluoro-2-pyridyl)sulfanyl]-6-[5-methyl-1-(4-piperidyl)pyrazol-4-yl]pyrazolo[1,5-a]pyridine-3-carbonitrile]", "IC50": 3},
      {"smiles": "Cc1ccc(F)c(Sc2cc(-c3cnn(C4CCN(C)CC4)c3C)cn3ncc(C#N)c23)n1", "note": "[Example 111, 4-[(3-fluoro-6-methyl-2-pyridyl)sulfanyl]-6-[5-methyl-1-(1-methyl-4-piperidyl)pyrazol-4-yl]pyrazolo[1,5-a]pyridine-3-carbonitrile]", "IC50": 3},
      {"smiles": "Cc1c(-c2cc(Sc3ccccc3C#N)c3c(C#N)cnn3c2)cnn1[C@@H]1CCCNC1", "note": "[Example 112, 4-(2-cyanophenyl)sulfanyl-6-[5-methyl-1-[(3R)-3-piperidyl]pyrazol-4-yl]pyrazolo[1,5-a]pyridine-3-carbonitrile]", "IC50": 2},
      {"smiles": "Cc1c(-c2cc(Sc3ncccc3F)c3c(C#N)cnn3c2)cnn1[C@H]1CC[C@@H](N(C)C)CC1", "note": "[Example 113]", "IC50": 1},
      {"smiles": "Cc1nc(Sc2cc(-c3cnn(C4CCNCC4)c3C)cn3ncc(C#N)c23)ccc1F", "note": "[Example 114, 4-[(5-fluoro-6-methyl-2-pyridyl)sulfanyl]-6-[5-methyl-1-(4-piperidyl)pyrazol-4-yl]pyrazolo[1,5-a]pyridine-3-carbonitrile]", "IC50": 3},
      {"smiles": "Cc1nc(Sc2cc(-c3cnn(C4CCNCC4)c3C)cn3ncc(C#N)c23)ccc1Cl", "note": "[Example 115, 4-[(5-chloro-6-methyl-2-pyridyl)sulfanyl]-6-[5-methyl-1-(4-piperidyl)pyrazol-4-yl]pyrazolo[1,5-a]pyridine-3-carbonitrile]", "IC50": 1},
      {"smiles": "Cc1cc(Sc2cc(-c3cnn(C4CCNCC4)c3C)cn3ncc(C#N)c23)c(F)cn1", "note": "[Example 116, -[(5-fluoro-2-methyl-4-pyridyl)sulfanyl]-6-[5-methyl-1-(4-piperidyl)pyrazol-4-yl]pyrazolo[1,5-a]pyridine-3-carbonitrile]", "IC50": 45},
      {"smiles": "Cc1c(-c2cc(Sc3ccccc3F)c3c(C#N)cnn3c2)cnn1C1CCNCC1", "note": "[Example 118, 4-(2-fluorophenyl)sulfanyl-6-[5-methyl-1-(4-piperidyl)pyrazol-4-yl]pyrazolo[1,5-a]pyridine-3-carbonitrile]", "IC50": 1},
      {"smiles": "Cc1c(-c2cc(Sc3c(F)cccc3C#N)c3c(C#N)cnn3c2)cnn1C1CCN(C)CC1", "note": "[Example 119]", "IC50": 1},
      {"smiles": "Cc1c(-c2cc(Sc3cccn4cncc34)c3c(C#N)cnn3c2)cnn1C1CCN(C)CC1", "note": "[Example 120, 4-imidazo[1,5-a]pyridin-8-ylsulfany1-6-[5-methyl-1-(1-methyl-4-piperidyl)pyrazol-4-yl]pyrazolo[1,5-a]pyridine-3-carbonitrile]", "IC50": 1},
      {"smiles": "Cc1nccc(Sc2cc(-c3cnn(C4CCNCC4)c3C)cn3ncc(C#N)c23)c1F", "note": "[Example 121]", "IC50": 99}
    ]}
  ]
}
